The text below walks through data of patent US20020169209A1, “Potentiation of therapeutic effects of fatty acids” (priority 2001, published 2002).

One assay concerns depression. The assay is described as follows: Case history: person seriously depressed for over 10 years. To be noted: one patient; ibuprofen alone. Format: in vivo, human. On the procedure:
Because there is evidence of elevated formation of prostaglandins in depression, they were given a combined COX-1 and COX-2 inhibitor, ibuprofen. […] The ibuprofen was stopped and they were treated with ethyl-eicosapentaenoate at a dose of 1 g/day. This seemed to have a modest effect but they remained far from well.

The test system of assay [1] is forgetfulness, possibly developing Alzheimer's disease (AD). Description: Case history: forgetful person, possible Alzheimer's disease. As to conditions: one patient; indomethacin alone over six months or so. It counts as in vivo, human. On the procedure:
A person had become very forgetful and their family was concerned that they might be developing Alzheimer's disease (AD). Because there is evidence that the NSAID indomethacin may be able to slow down the progression of AD, their child, who was a doctor, prescribed indomethacin. […] Because of animal work on the beneficial effects of AA in the aging rat brain, 800 mg of AA in triglyceride form was added to the treatment regime.

For `CC(C)Cc1ccc(C(C)C(=O)O)cc1` (centres unmarked) [ibuprofen], the effect on depression entry with depression is reported as “marginal effect but this was not apparent to observers”. `COc1ccc2c(c1)c(CC(=O)O)c(C)n2C(=O)c1ccc(Cl)cc1` [indomethacin]: the effect on forgetfulness entry in assay [1] is “may have had a slight effect but there was no dramatic change”.
